Source: article PMC8954846, “Molecular Characterisation of Flavanone O-methylation in Eucalyptus” (International Journal of Molecular Sciences, 2022)
Like-named read-outs stand apart in the source and are kept apart here.

Tests used:
EmOMT1 = test system: T1, EmOMT1; test: methyltransferase assay, RP-HPLC, extrapolated non-linear regression; format: biochemical, Eucalyptus mitchelliana; conditions: crude recombinant E. coli extract, SAM, 50 mM potassium phosphate pH 7, 30 °C, 16 h incubation needed for product, read-out: apparent Km
T1 construct: gene OMT1; full-length

EcOMT1 = test system: T2, EcOMT1; test: methyltransferase assay, RP-HPLC of pinostrobin formed, Michaelis-Menten fit; format: biochemical, Eucalyptus croajingolensis; conditions: crude recombinant E. coli extract; SAM; 50 mM potassium phosphate pH 7, 30 °C; read-out: apparent Km app
T2 construct: gene OMT1; full-length

EnOMT1 = test system: T3, EnOMT1; test: as above; format: biochemical, Eucalyptus nitida; conditions: crude recombinant E. coli extract, 50 mM potassium phosphate pH 7, 30 °C, read-out: apparent Km
T3 construct: gene OMT1; full-length, 349 residues; E. coli BL21 (DE3)

Km (EmOMT1) [µM] | Km (EcOMT1) [µM] | Km (EnOMT1; 100 μM SAM, kcat from His-affinity purified enzyme) [µM] | Km (EnOMT1; 50 μM pinocembrin, methyl donor) [µM] | Structure (SMILES)
> 800 | 2.55 ± 0.38 | 2.05 ± 0.16 |  | O=C1C[C@@H](c2ccccc2)Oc2cc(O)cc(O)c21 [pinocembrin]
 |  |  | 4.99 ± 0.29 | C[S+](CC[C@H](N)C(=O)O)C[C@H]1O[C@@H](n2cnc3c(N)ncnc32)[C@H](O)[C@@H]1O (stereo partly shown) [S-adenosylmethionine]
